Results from US11813252B2, “Treatment for Parkinson's disease” (SUN PHARMA ADVANCED RESEARCH COMPANY LTD., priority 2016, dated 2023).

Experiments:
[1] = Brain/plasma pharmacokinetic study in mice; format: in vivo, C57BL6 mice
Method: At 1, 4 & 8 hour time points post treatment, mice were anesthetized with isoflurane and a 0.4 mL of blood was withdrawn from retro-orbital plexus into eppendorf tubes containing 8 μL sodium heparin as an anticoagulant (100 IU/ml) and transferred to ice containers. Blood samples were centrifuged immediately for 7 min at 8500 rpm, 4° C. Plasma was separated in the pre-labeled eppendorf tubes and stored at −70° C. till further analysis. Immediately thereafter, the mice were sacrificed, whole brain was removed and rinsed with ice-cold phosphate buffered saline (PBS) to remove extraneous blood and blot-dried. Brain tissue samples were weighed and homogenized in 1:2 volume of PBS using a tissue homogenizer and stored in labeled vials at −70° C. until further analysis. Concentrations of the compound of Formula I.a in brain and plasma were determined using the LC-MS technique.

[2] = tested on: neurodegeneration induced by MPTP (TH-positive neurons); test: MPTP animal model of Parkinson's disease, TH immunohistochemistry; format: in vivo, C57BL/6 mice; details: oral, 10 or 30 mg/kg once a day, 6 days before, on the day of and 7 days after MPTP; substantia nigra pars compacta
Abl (human) = Abl (human) (Homo sapiens, UniProt P00519); test: Abl kinase inhibition; format: biochemical; details: read-out: Comparative potencies of tyrosine kinase inhibitors in c-Abl IC50
Sequence of Abl (human) (P00519 whole entry): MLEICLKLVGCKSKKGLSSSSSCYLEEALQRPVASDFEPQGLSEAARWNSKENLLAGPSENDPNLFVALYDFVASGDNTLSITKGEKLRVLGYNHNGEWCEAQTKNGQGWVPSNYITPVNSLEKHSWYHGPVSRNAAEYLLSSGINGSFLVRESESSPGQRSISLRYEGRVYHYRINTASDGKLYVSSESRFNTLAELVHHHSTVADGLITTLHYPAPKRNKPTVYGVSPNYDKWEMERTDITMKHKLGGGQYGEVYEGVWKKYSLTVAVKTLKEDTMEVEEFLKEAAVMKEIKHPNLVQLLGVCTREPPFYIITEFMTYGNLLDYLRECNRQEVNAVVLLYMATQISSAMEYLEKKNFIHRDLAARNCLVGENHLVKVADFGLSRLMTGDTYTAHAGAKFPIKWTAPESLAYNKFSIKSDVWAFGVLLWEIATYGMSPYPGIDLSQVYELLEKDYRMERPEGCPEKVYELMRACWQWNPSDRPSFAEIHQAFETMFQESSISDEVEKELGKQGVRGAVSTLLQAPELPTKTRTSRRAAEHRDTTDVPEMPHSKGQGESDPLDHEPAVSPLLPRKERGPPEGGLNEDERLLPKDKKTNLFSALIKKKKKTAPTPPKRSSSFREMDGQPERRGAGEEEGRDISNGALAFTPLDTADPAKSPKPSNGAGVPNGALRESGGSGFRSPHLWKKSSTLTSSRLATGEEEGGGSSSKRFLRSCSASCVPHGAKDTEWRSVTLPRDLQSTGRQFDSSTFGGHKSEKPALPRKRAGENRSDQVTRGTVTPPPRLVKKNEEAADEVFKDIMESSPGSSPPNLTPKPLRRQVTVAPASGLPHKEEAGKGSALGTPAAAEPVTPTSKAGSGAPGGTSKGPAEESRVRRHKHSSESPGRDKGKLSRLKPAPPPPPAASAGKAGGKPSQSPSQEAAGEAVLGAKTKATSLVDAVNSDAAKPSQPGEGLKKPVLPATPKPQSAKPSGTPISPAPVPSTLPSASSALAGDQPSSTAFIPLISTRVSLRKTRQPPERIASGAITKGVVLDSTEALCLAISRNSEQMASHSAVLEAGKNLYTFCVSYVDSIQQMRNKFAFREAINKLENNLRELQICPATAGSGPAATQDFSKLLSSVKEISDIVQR
Method: [specific activity approx. 500 cpm/pmol, concentration as required). The reaction is initiated by the addition of the MgATP mix. After incubation for 40 minutes at room temperature, the reaction is stopped by the addition of 5 μL of a 3% phosphoric acid solution. 10 μL of the reaction is then spotted onto a P30 filtermat and washed three times for 5 minutes in 75 mM phosphoric acid and once in methanol prior to drying and scintillation counting.

[3] = QT, QTc intervals and heart rate in anesthetized guinea pig; format: in vivo, Dunkin-Hartley guinea pigs; details: 1 mg/kg intravenous infusion over 10 min
Method: Male Dunkin-Hartley guinea pigs of body weight range 300-400 g were anaesthetized by intraperitoneal injection of urethane (1.5 g/kg). A tracheotomy was performed and animal was allowed to breath spontaneously throughout the experiment. The left jugular vein was catheterized using polyethylene catheter filled with heparinized saline solution (100 IU/mL) for drug administration. Electrodes were placed in lead II position and baseline ECG was recorded.
For different animals, according to body weight, doses of the compound of Formula I.b were weighed and prepared in 0.5 mL of DMSO and administered via a slow intravenous infusion administered over a period of 10 min. ECGs were recorded during and after completion of infusion up to 0.5 hr. QT and RR intervals were measured, using PowerLab 4SP® software. The data were analyzed at 1, 5, and 10 min during infusion and 5, 10, 15 and 30 min after infusion taking mean of 9 beats.

hERG K+ channel = target: T1, hERG K+ channel (Homo sapiens, UniProt Q12809); test: hERG K+ channel patch clamp in HEK293 cells; format: cell-based; details: for Inhibition of hERG current (in words): at the concentration tested
T1 construct: expressed in transfected cells
T1 sequence (Q12809 whole entry): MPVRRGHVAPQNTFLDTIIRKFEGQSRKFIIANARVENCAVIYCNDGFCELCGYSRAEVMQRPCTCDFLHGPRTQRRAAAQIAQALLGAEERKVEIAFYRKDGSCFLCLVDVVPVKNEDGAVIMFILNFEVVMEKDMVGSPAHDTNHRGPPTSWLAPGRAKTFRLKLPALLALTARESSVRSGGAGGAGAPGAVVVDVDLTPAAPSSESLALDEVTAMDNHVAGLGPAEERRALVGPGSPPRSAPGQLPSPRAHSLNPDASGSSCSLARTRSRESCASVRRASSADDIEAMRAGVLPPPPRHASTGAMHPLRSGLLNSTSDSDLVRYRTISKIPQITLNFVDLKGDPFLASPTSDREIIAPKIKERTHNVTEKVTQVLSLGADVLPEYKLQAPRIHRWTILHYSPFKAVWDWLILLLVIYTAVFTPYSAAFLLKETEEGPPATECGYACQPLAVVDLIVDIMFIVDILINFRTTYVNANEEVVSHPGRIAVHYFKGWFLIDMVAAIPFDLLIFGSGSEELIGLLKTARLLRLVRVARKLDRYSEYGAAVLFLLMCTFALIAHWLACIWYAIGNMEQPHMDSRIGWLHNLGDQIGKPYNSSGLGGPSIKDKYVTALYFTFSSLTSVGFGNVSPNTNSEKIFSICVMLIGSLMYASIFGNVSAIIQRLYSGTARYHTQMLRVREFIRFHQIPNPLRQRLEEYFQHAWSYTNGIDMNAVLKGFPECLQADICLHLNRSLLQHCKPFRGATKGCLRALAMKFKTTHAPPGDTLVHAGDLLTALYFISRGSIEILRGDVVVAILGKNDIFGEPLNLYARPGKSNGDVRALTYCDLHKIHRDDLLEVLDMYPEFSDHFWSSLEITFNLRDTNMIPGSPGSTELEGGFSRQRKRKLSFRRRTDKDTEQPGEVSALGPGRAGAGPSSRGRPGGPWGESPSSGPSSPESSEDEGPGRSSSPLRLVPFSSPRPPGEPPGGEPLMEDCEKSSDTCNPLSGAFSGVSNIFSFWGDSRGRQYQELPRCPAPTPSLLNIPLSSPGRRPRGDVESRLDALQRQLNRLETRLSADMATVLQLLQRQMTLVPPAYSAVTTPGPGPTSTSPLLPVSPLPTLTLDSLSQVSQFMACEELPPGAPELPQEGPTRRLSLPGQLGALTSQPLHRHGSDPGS
Method: The in vitro effect of the compounds of Formula I.a and I.b on ionic currents in voltage-clamped human embryonic kidney cells (HEK293) that stably express the human ether-à-go-go-related gene (hERG) was examined. Two concentrations of the compounds of Formula I.a and I.b (1 and 10 μM) were tested at near physiological temperature.
Cells were transferred to the recording chamber and superfused with vehicle control solution (HEPES-buffered physiological saline solution+1% dimethylsulfoxide+1% Bovine serum albumin). Micropipette solution for whole cell patch clamp recordings was composed of: potassium aspartate, 130 mM; MgCl2, 5 mM; EGTA, 5 mM; ATP, 4 mM; HEPES, 10 mM; pH adjusted to 7.2 with 10N KOH. Micropipette solution was prepared in batches, aliquoted, stored frozen and a fresh aliquot thawed each day. The recording was performed at a temperature of 33 to 35° C. using a combination of in-line solution pre-heater, chamber heater and feedback temperature controller. Temperature was measured using a thermistor probe in the recording chamber. Micropipettes for patch clamp recording were made from glass capillary tubing using a P-97 micropipette puller (Sutter Instruments, Novato, Calif.). A commercial patch clamp amplifier was used for whole cell recordings. Before digitization, current records were low-pass filtered at one-fifth of the sampling frequency.
Cells stably expressing hERG were held at −80 mV. Onset and steady state inhibition of hERG potassium current due to the test compounds (Formula I.a and I.b) were measured using a pulse pattern with fixed amplitudes (conditioning prepulse +20 mV for 1 s; repolarizing test ramp to −80 mV (−0.5 V/s) repeated at 5 s intervals). […] was subtracted off-line digitally from the data to determine the potency of the test compounds for hERG inhibition.

[4] = QT, QTc intervals and heart rate in conscious telemetered beagle dogs; format: in vivo; details: for Emesis: beagle dogs
Method: Compound of Formula I.a was administered via peroral (p.o.) route at three dose levels: 5, 15, and 30 mg/kg in conscious telemetered male and female beagle dogs.
(§1) Measurements of ECG parameters (QT interval, QTcb interval, QTcf interval) and heart rate were carried out and recorded over a period of 2 hour prior to drug administration (baseline), and continuously up to 24 hour post-administration. Each animal received both vehicle (placebo) and three different doses of the compound of Formula I.a on different days in a Latin square design, with a washout period of a minimum of 96 hr. On a separate day, one additional oral dosing of compound of Formula I.a was performed to assess plasma concentrations of the compound of Formula I.a at different time points, to derive pharmacokinetic (PK) parameters.
Data of ECG parameters (QT interval, QTcb interval, QTcf interval,) and heart rate were statistically compared as follows: Data of the placebo group at 0.5, 1, 1.5, 2, 3, 4, 5, 6, 8, 12, and 24 hour time points were compared with baseline data of the same group. Data of different groups treated with the compound of Formula I.a were compared with the corresponding data of the placebo group.

[5] = Plasma pharmacokinetics in beagle dogs; format: in vivo; details: dog, oral
Method: as §1

[6] = human, HEK293 cells stably expressing hERG, 33 to 35° C., n=3, read-out: Mean percent inhibition of hERG current

For Cc1nc(Nc2ncc(C(=O)Nc3c(C)cccc3Cl)s2)cc(N2CCN(CCO)CC2)n1 [Dasatinib, dasatinib, reference compound], the Plasma conc. ([1]; oral, I.a 30 mg/kg, nilotinib 100 mg/kg, dasatinib 30 mg/kg, 8 hr) was “BQL”.
For Cc1ccc(C(=O)NNC(=O)c2c(C)cccc2Cl)cc1C#Cc1ccc(NC(=O)C2CC2)nc1 [Compound I.b, Cyclopropanecarboxylic acid (5-{5-[N′-(2-chloro-6-methylbenzoyl)hydrazinecarbonyl]-2-methyl-phenylethynyl}-pyridin-2-yl)amide], the “Prevention of neurodegeneration induced by MPTP (TH-positive neurons, percentage area, integrated density)” value [2] was “significantly prevented the neurodegeneration induced by MPTP”, the IC50 (Abl (human)) was 0.6 nM and the “Change in QT intervals” value [3] was “no change in QT intervals”. For the same molecule, the “Inhibition of hERG current (in words)” value (hERG K+ channel) was “did not show any significant inhibition of hERG current”, the inhibition at 0.3 µM (hERG K+ channel; human, HEK293 cells stably expressing hERG, 0.3 μM, 33 to 35° C., n=3, read-out: Mean percent inhibition of hERG current) was 5.6% and the inhibition at 1 µM (hERG K+ channel; [6]) was 12.9%. The inhibition at 3 µM (hERG K+ channel; human, HEK293 cells stably expressing hERG, 3 μM, 33 to 35° C., n=3, read-out: Mean percent inhibition of hERG current) was 25%.
In the case of Cc1ccc(C(=O)NNC(=O)c2c(C)cccc2Cl)cc1C#Cc1cnc2ccccc2c1 [Compound I.a, N′-(2-Chloro-6-methylbenzoyl)-4-methyl-3-[2-(3-quinolyl)ethynyl]-benzohydrazide], the “Prevention of neurodegeneration induced by MPTP (TH-positive neurons, percentage area, integrated density)” value [2] is reported as “significantly prevented the neurodegeneration induced by MPTP”, the “Brain to plasma ratio as compared to nilotinib or dasatinib” value ([1]; oral 30 mg/kg) is reported as “significantly higher” and the Emesis ([4]; p.o., 30 mg/kg, at 14 min following dosing) is reported as “Emesis occurred in two animals”. The Emesis ([4]; p.o., 5 and 15 mg/kg) was “No emesis was observed”, the “Change in ECG morphology” value ([4]; conscious beagle dogs, any dose level) was “no change in ECG morphology” and the Heart rate ([4]; conscious beagle dogs, p.o., 5 and 15 mg/kg) was “remained unchanged”. The “Effect on QT, QTcb, QTcf durations compared with placebo” value ([4]; conscious beagle dogs, p.o., 5 and 15 mg/kg, up to 24 hour) was “no effects”, the “Effect on cardiovascular functions” value ([4]; conscious beagle dogs, single oral administration up to 15 mg/kg) was “no effect on cardiovascular functions” and the “Inhibition of hERG current (in words)” value (hERG K+ channel) was “did not show any significant inhibition of hERG current”. For the same molecule, the inhibition at 1 µM (hERG K+ channel; [6]) was 2.1 ± 0.4%, the inhibition at 10 µM (hERG K+ channel; human, HEK293 cells stably expressing hERG, 10 μM, 33 to 35° C., n=3, read-out: Mean percent inhibition of hERG current) was 9.7 ± 0.4% and the AUC(0-inf) ([5]; 5 mg/kg) was 1920 to 4820 ng·h/mL. It also gave a Cmax ([5]; 5 mg/kg) of 1220 to 2030 ng/mL, an AUC(0-inf) ([5]; 15 mg/kg) of 6780 to 12800 ng·h/mL and a Cmax ([5]; 15 mg/kg) of 2720 to 5320 ng/mL. It also gave an AUC(0-inf) ([5]; 30 mg/kg) of 25900 to 46700 ng·h/mL and a Cmax ([5]; 30 mg/kg) of 9820 to 9970 ng/mL.
